Reference: article PMC5663395, “Chemical Validation of Methionyl-tRNA Synthetase as a Druggable Target in Leishmania donovani” (ACS Infectious Diseases, 2017)
Read-outs that look alike come from different tables or passages of the source.

Assay: LogD measurement (Sirius T3, potentiometric)
Assay type: physicochemical
Settings: octanol/water
Method: calculated, both in terms of pEC50 values. MIC (minimum inhibitory concentration) values are defined as the lowest concentration tested at which maximal inhibition is reached.
THP-1 cells were differentiated in 96-well plates with PMA as described above. Following differentiation the cells were treated for 30 min with dose-response curves of test compounds in presence of 100 nM LysoTracker Red DND-99 (Thermo Fisher) and 5 µg/ml Hoechst 33342. Next cells were washed 3 times with Hanks Buffered Saline Solution (Gibco) and imaged on a Perkin Elmer Operetta system. An image analysis algorithm to measure mean Lysotracker Red DND-99 intensity per cell was developed in Columbus. […]
To measure the pKa of DDD806905, a fast UV-metric method was performed using a Sirius T3 instrument (Sirius Analytical, U.K.). The calculation of the pKa was determined using the Sirius T3 refine software (Sirius Analytical, U.K.). In brief, the UV-metric pKa method is based on measuring pH during an acid-base titration and monitoring UV absorbance shift. […] The appearance of precipitate was monitored throughout the experiment by a turbidity sensing device. […] The pKas of DDD806905 was determined at the pH where there was maximal change in UV absorbance with respect to pH. […]
LogD7.4 values were quantified using a Sirius T3 instrument (Sirius Analytical, U.K.). […]
which gave the best fit to the data was then recorded as the logP. […]

## Cl.Cl.O=c1nc(NCCCNCc2cc3c(Cl)cc(Cl)cc3[nH]2)[nH]c2ccccc12 [DDD806905, 2-((3-(((4,6-dichloro-1H-indol-2-yl)methyl)amino)propyl)amino)quinazolin-4(1H)-one dihydrochloride]
pH 5.6, read-out: log D5.6
  logD: 0.3
pH 7.3, read-out: log D7.3
  logD: 2.6
